Structures are written as SMILES. A value given as a limit tells only on which side of the number the result lay.

The target of this assay is T1, PAD4 enzyme (Homo sapiens, UniProt Q9UM07).
T1 construct: PAD4 enzyme was diluted to 30 nM in Assay Buffer
T1 sequence (Q9UM07 whole entry): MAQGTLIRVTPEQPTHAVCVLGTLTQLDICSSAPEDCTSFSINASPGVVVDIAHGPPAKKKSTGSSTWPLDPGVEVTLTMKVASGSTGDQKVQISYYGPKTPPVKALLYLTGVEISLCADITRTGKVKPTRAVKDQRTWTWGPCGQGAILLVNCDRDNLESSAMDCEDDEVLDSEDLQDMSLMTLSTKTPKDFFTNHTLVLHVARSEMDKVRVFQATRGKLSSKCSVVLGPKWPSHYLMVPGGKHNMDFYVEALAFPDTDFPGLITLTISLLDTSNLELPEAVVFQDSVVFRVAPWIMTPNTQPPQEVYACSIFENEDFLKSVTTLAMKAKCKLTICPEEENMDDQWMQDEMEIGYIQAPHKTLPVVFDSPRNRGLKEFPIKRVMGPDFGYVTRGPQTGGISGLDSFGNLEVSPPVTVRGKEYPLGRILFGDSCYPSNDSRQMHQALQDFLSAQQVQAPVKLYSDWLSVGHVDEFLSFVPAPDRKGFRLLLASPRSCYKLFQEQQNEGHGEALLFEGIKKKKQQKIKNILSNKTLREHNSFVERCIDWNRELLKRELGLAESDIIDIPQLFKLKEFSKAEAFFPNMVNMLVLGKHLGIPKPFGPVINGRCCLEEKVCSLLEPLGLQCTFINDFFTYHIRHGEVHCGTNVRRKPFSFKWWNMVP
Kind of assay: In-vitro measurement for enzymatic PAD4 citrullination inhibition activity (ammonia release). The class given is biochemical. The conditions noted are these: read-out: IC50 of inhibition enzymatic activity of PAD4 (Colorimetric assays, Nature Chemical Biology, 2015, 11: 189-191). Here is the method:
Citrullination was detected via ammonia release based on published methodology (Nature Chemical Biology, 2015, 11: 189-191).
PAD4 enzyme was diluted to 30 nM in Assay Buffer (100 mM HEPES, 50 mM NaCl, 2 mM DTT, 0.6 mg/ml BSA, pH 8) and added to wells containing various concentrations of compound or DMSO vehicle (0.8% final) in a high-volume black 96-well plate (Greiner). Following a 60-min preincubation at 27° C., the reaction was initiated by the addition of substrate (3 mM BAEE in 100 mM HEPES, 50 mM NaCl, […] CaCl2, 2 mM DTT, pH 8). The reaction was stopped after 90 min by the addition of stop/detection buffer containing 50 mM EDTA, 2.6 mM o-phthalaldehyde and 2.6 mM DTT. Assays were incubated at 27° C. for 120 min before measuring fluorescence (λex 410/λem 476) on an Envision plate reader (PerkinElmer). After which IC50 values were calculated using GraphPad Prism 8.0.
`COc1cc(C(=O)N2C[C@H]3CC[C@@H]2[C@@H]3N)cc2nc(-c3cc4[se]c(-c5cccc(C)c5)cc4n3CC3CC3)n(C)c12` [HH-57]: the IC50 fell in the range of 100 to 500 nM.

`COc1ccc(-c2cc3c(cc(-c4nc5cc(C(=O)N6C[C@H]7CC[C@@H]6[C@@H]7N)cc(OC)c5n4C)n3CC3CC3)[se]2)cc1` [HH-58]: the IC50 was in the range of 100 to 500 nM.

`COc1ccccc1-c1cc2c(cc(-c3nc4cc(C(=O)N5C[C@H](N)CC[C@@H]5C)cc(OC)c4n3C)n2CC2CC2)[se]1` [HH-59]: the IC50 was not above 50 nM.

Consider `COc1ccccc1-c1cc2c(cc(-c3nc4cc(C(=O)N5C[C@H](N)C[C@@H](F)C5)cc(OC)c4n3C)n2CC2CC2)[se]1` [HH-60], for which the IC50 is 100 to 500 nM.

`COc1cc(C(=O)N2C[C@H]3CC[C@@H]2[C@@H]3N)cc2nc(-c3cc4[se]c(-c5ccccn5)cc4n3CC3CC3)n(C)c12` [HH-61]: the IC50 lay within 100 to 500 nM.

As to `COc1cc(C(=O)N2C[C@H](N)CC[C@@H]2C)cc2nc(-c3cc4[se]c(-c5ccccn5)cc4n3CC3CC3)n(C)c12` [HH-62], the IC50 is 50 to 100 nM.

Take `COc1cc(C(=O)N2C[C@H](N)C[C@@H](F)C2)cc2nc(-c3cc4[se]c(-c5ccccn5)cc4n3CC3CC3)n(C)c12` [HH-63]: the IC50 is 100 to 500 nM.

Consider `COc1cc(C(=O)N2C[C@H](N)C[C@@H](F)C2)cc2nc(-c3cc4cc[se]c4n3CC3CC3)n(C)c12` [HH-64], for which the IC50 was 50 to 100 nM.

On to `COc1cc(C(=O)N2C[C@H](N)CC[C@@H]2C)cc2nc(-c3cc4cc[se]c4n3CC3CC3)n(C)c12` [HH-65], for which the IC50 lay in the range of 50 to 100 nM.

Regarding `COc1cc(C(=O)N[C@@H]2CC[C@H](C)NC2)cc2nc(-c3cc4cc[se]c4n3CC3CC3)n(C)c12` [HH-66], the concentration for half-maximal inhibition (IC50) was 100 to 500 nM.

For `COc1cc(C(=O)N2C[C@H](N)CC[C@@H]2C)cn2nc(-c3cc4[se]c(C)nc4n3CC3CC3)c(C)c12` [HH-67], the concentration for half-maximal inhibition (IC50) fell in the range of 100 to 500 nM.

Consider `COc1cc(C(=O)N2C[C@H]3CC[C@@H]2[C@@H]3N)cn2nc(-c3cc4[se]c(C)nc4n3CC3CC3)c(C)c12` [HH-68], for which the IC50 was 50 to 100 nM.

With `COc1cc(C(=O)N2C[C@H](N)C[C@@H](F)C2)cn2nc(-c3cc4[se]c(C)nc4n3CC3CC3)c(C)c12` [HH-69], the IC50 lay in the range of 50 to 100 nM.

With `Cc1c(-c2cc3[se]c(-c4ccccn4)nc3n2CC2CC2)nn2cc(C(=O)N3C[C@H](N)CC[C@@H]3C)ccc12` [HH-70], the IC50 fell in the range of 100 to 500 nM.

Turning to `Cc1c(-c2cc3[se]c(-c4ccccn4)nc3n2CC2CC2)nn2cc(C(=O)N3C[C@H](N)C[C@@H](F)C3)ccc12` [HH-71], the IC50 lay within 100 to 500 nM.

With `Cc1c(-c2cc3[se]c(-c4ccccn4)nc3n2CC2CC2)nn2cc(C(=O)N3C[C@H]4CC[C@@H]3[C@@H]4N)ccc12` [HH-72], the IC50 lay within 100 to 500 nM.

Turning to `Cc1nc2c(cc(-c3nc4cc(C(=O)N5C[C@H](N)C[C@@H](F)C5)ccn4c3C)n2CC2CC2)[se]1` [HH-73], the IC50 was 50 to 100 nM.

Consider `Cc1nc2c(cc(-c3nc4cc(C(=O)N5C[C@H]6CC[C@@H]5[C@@H]6N)ccn4c3C)n2CC2CC2)[se]1` [HH-74], for which the IC50 fell in the range of 50 to 100 nM.

Regarding `Cc1nc2c(cc(-c3nc4cc(C(=O)N5C[C@H](N)CC[C@@H]5C)ccn4c3C)n2CC2CC2)[se]1` [HH-75], the IC50 is not above 50 nM.

The values are drawn from patent US20260193272A1, “SELENIUM CONTAINING HETEROCYCLE COMPOUNDS AND USE THEREOF” (HELIOS HUAMING BIOPHARMA CO., LTD., priority 2022, published 2026).
